What was measured:
neuropilin-1 (NP-1) = biological target: T1, neuropilin-1 (NP-1) (Homo sapiens, UniProt O14786); experiment: 125I-VEGF-A165 binding; conditions: assay not given; 125I-VEGF-A165 binding is the only concentration-response binding method described
T1 construct: expressed in transfected cells; host or cells: porcine aortic endothelial cells (PAE/NP-1), hygromycin B selection
Experimental: (§1) Porcine aortic endothelial cells expressing neuropilin-1 (PAE/NP-1) were cultured in Ham's F12 medium containing 10% fetal bovine serum (FBS) and 25 μg/ml hygromycin B. PAE cells expressing KDR (PAE/KDR) were grown in Ham's F12 medium containing 10% FBS and 250 μg/ml […] G418. Human carcinoma cell lines (DU145, A549 and ACHN) were grown in RPMI 1640 medium containing 10% FBS and L-glutamine.
Confluent cells in 24-well plates were washed twice with phosphate-buffered saline (PBS). At 4° C. various concentrations of peptides or peptidomimetics diluted in binding medium (Dulbecco's modified Eagle's medium, 25 mM HEPES pH 7.3 containing 0.1% BSA) were added, followed by addition of 0.1 nM of ^125I-VEGF-A165 (1200-1800 Ci/mmol, GE Healthcare). After 2 h of incubation at 4° C., the medium was aspirated and washed 4 times with cold PBS. The cells were lysed with 0.25 M NaOH, 0.5% SDS solution, and the bound radioactivity of the lysates was measured in a γ counter. Non-specific binding was determined in the presence of 100-fold excess unlabelled VEGF-A165.

DU145 cancer cells = experiment: Cell-matrix adhesion (Innocyte ECM cell adhesion assay); assay type: cell-based, Human; conditions: concentrations from 10-100 μM
Experimental: as §1
Cell adhesion to extracellular matrix proteins (basement membrane protein complex, laminin I, collagen IV, fibronectin or vitronectin) was measured by the Innocyte ECM cell adhesion assay (Calbiochem). Cells were detached with a non-enzyme cell dissociation solution (Sigma), washed and resuspended in RPMI 1640 medium. Cells with or without peptidomimetic treatment were seeded at 3×10^4 cells per matrix-coated well of 96-well plates. After 1.5 h incubation, cells were washed with PBS. The attached cells were labelled with the green fluorescent dye calcein-AM and measured using a fluorescence plate reader at an excitation wavelength of 485 nm and an emission wavelength of 520 nm.

A549 cells = experiment: Cell migration (chemotaxis transwell); assay type: cell-based, Human; conditions: concentrations from 10-100 μM
Experimental: as §1
(§2) Cell migration was measured in chemotaxis 24-transwell plates with collagen 1-coated inserts. The various concentrations of serum in RPMI 1640/0.1% BSA were placed in the bottom wells of the plates, while top inserts incorporating PET (polyethylene terephthalate) track-etched membranes with 8 micron pores (Becton Dickinson Biosciences) were placed over the bottom wells. Cells were trypsinised, washed and resuspended in RPMI 1640/0.1% BSA. 1.5×10^6 cells with or without peptide or peptidomimetic treatment as indicated were loaded into each top inserts, and the chemotaxis trans-well plates were incubated at 37° C. for 4 h. After the incubation, non-migrated cells on the top side of the trans-well membranes were removed, and migrated cells on the under side of the trans-well membranes were stained with the REASTAIN Quick-Diff kit (REAGENA). The stained cells from each well were counted in 4 fields at ×100 magnification using an eyepiece indexed graticule (100 grids).

ACHN cells = experiment: Cell migration (chemotaxis transwell); assay type: cell-based, Human; conditions: concentrations from 10-100 μM
Experimental: as §1, §2

T1 sequence (O14786 22-923): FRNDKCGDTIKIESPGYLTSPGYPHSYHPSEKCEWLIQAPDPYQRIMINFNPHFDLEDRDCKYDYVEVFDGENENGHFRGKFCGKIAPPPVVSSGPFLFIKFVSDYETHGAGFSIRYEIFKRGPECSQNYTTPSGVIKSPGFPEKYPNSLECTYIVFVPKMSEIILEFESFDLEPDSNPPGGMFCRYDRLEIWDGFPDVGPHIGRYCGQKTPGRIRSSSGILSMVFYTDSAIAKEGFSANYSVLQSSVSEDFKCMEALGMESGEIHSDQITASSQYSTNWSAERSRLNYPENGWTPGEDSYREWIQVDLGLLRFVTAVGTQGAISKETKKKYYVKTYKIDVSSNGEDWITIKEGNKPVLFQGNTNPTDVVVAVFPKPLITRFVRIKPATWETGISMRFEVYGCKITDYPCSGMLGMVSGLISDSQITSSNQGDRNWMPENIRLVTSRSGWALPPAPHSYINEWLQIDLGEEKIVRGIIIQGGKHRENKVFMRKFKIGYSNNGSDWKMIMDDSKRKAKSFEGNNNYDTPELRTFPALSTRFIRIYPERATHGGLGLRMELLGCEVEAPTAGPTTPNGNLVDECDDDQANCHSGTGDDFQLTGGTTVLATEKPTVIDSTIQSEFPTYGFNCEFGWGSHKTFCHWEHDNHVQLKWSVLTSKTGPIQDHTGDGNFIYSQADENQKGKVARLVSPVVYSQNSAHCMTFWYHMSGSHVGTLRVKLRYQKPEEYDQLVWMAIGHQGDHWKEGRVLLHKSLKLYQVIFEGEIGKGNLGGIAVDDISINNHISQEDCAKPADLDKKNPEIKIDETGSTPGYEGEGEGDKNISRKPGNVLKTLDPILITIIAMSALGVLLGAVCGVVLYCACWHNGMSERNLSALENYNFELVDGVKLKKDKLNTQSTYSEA

Row | Compound | IC50 (neuropilin-1 (NP-1)) [µM] | also measured
1 | N=C(N)NCCC[C@H](NC(=O)c1sccc1NS(=O)(=O)c1ccc(N)cc1)C(=O)O [EG00144, (S)-2-{[3-(4-Amino-benzenesulfonylamino)-thiophene-2-carbonyl]-amino}-5-guanidino-pentanoic acid] | < 20 | inhibiting the adhesion of DU145 cancer cells to extracellular matrix proteins (DU145 cancer cells): effective; migration of A549 cells (A549 cells): decreased migration; migration of ACHN cells (ACHN cells): decreased migration
2 | CC(=O)Nc1ccc(S(=O)(=O)Nc2ccsc2C(=O)N[C@@H](CCCNC(=N)N)C(=O)O)cc1 [EG00203, (S)-2-{[3-(4-Acetylamino-benzenesulfonylamino)-thiophene-2-carbonyl]-amino}-5-guanidino-pentanoic acid] | < 20 | 
3 | Cc1ccc2nsnc2c1S(=O)(=O)Nc1ccsc1C(=O)N[C@@H](CCCNC(=N)N)C(=O)O [EG00264, (S)-2-{[3-(5-Methyl-benzo[1,2,5]thiadiazole-5-methyl-4-sulfonylamino)-thiophene-2-carbonyl]-amino}-5-guanidino-pentanoic acid] | < 20 | 
4 | Cc1nn(C)c(Cl)c1CNc1cccc(S(=O)(=O)Nc2ccsc2C(=O)N[C@@H](CCCNC(=N)N)C(=O)O)c1 [EG00280, (S)-2-[(3-{3-[(5-Chloro-1,3-dimethyl-1H-pyrazol-4-ylmethyl)-amino]-benzenesulfonylamino}-thiophene-2-carbonyl)-amino]-5-guanidino-pentanoic acid] | < 20 | 
5 | N=C(N)NC(=O)CC[C@H](NC(=O)c1sccc1NS(=O)(=O)c1ccccc1[N+](=O)[O-])C(=O)O [EG00285, (S)-5-Guanidino-2-{[3-(2-nitro-benzenesulfonylamino)-thiophene-2-carbonyl]-amino}-5-oxo-pentanoic acid] | < 20 | 
6 | N=C(N)NCCC[C@H](NC(=O)c1sccc1NS(=O)(=O)c1cccc2nonc12)C(=O)O [EG00288, (S)-2-{[3-(Benzo[1,2,5]oxadiazole-4-sulfonylamino)-thiophene-2-carbonyl]-amino}-5-guanidino-pentanoic acid] | < 20 | 
7 | N=C(N)NCCC[C@H](NC(=O)c1sccc1NS(=O)(=O)c1cc(Br)cc2c1OCC2)C(=O)O [EG00299, (S)-2-{[3-(5-Bromo-2,3-dihydro-benzofuran-7-sulfonylamino)-thiophene-2-carbonyl]-amino}-5-guanidino-pentanoic acid] | < 20 | 
8 | Cc1noc(C)c1CNc1cccc(S(=O)(=O)Nc2ccsc2C(=O)N[C@@H](CCCNC(=N)N)C(=O)O)c1 [EG00317, (S)-2-[(3-{3-[(3,5-Dimethyl-isoxazol-4-ylmethyl)-amino]-benzenesulfonyl-amino}-thiophene-2-carbonyl)-amino]-5-guanidino-pentanoic acid] | < 20 | 
9 | Cc1nn(-c2ccccc2)c(Cl)c1CNc1cccc(S(=O)(=O)Nc2ccsc2C(=O)N[C@@H](CCCNC(=N)N)C(=O)O)c1 [EG00318, (S)-2-[(3-{3-[(5-Chloro-3-methyl-1-phenyl-1H-pyrazol-4-ylmethyl)-amino]-benzenesulfonylamino]-thiophene-2-carbonyl)-amino]-5-guanidino-pentanoic acid] | < 20 | 
10 | Cn1nc(CNc2cccc(S(=O)(=O)Nc3ccsc3C(=O)N[C@@H](CCCNC(=N)N)C(=O)O)c2)c2ccccc21 [EG00319, (S)-5-Guanidino-2-[(3-{3-[(1-methyl-1H-indazol-3-ylmethyl)-amino]-benzenesulfonylamino}-thiophene-2-carbonyl)-amino]-pentanoic acid] | < 20 | 
11 | Cc1nc(CNc2cccc(S(=O)(=O)Nc3ccsc3C(=O)N[C@@H](CCCNC(=N)N)C(=O)O)c2)c(C)o1 [EG00332, (S)-2-[(3-{3-[(2,5-Dimethyl-oxazol-4-ylmethyl)-amino]-benzenesulfonylamino}-thiophene-2-carbonyl)-amino]-5-guanidino-pentanoic acid] | < 20 | 

Now from value to compound, other results behind:

Row | IC50 (neuropilin-1 (NP-1)) [µM] | Compound | also measured
12 | < 20 | N=C(N)NCCC[C@H](NC(=O)c1sccc1NS(=O)(=O)c1cccc(N)c1)C(=O)O [EG00174, (S)-2-{[3-(3-Amino-benzenesulfonylamino)-thiophene-2-carbonyl]-amino}-5-guanidino-pentanoic acid] | 
13 | < 20 | N=C(N)NCCC[C@H](NC(=O)c1sccc1NS(=O)(=O)c1ccccc1[N+](=O)[O-])C(=O)O [EG00224, (S)-5-Guanidino-2-{[3-(2-nitro-benzenesulfonylamino)-thiophene-2-carbonyl]-amino}-pentanoic acid] | 
14 | < 20 | N=C(N)NCCC[C@H](NC(=O)c1sccc1NS(=O)(=O)c1ccccc1N)C(=O)O [EG00225, (S)-2-{[3-(2-Amino-benzenesulfonylamino)-thiophene-2-carbonyl]-amino}-5-guanidino-pentanoic acid] | 
15 | < 20 | Cc1nc(S(=O)(=O)Nc2ccsc2C(=O)N[C@@H](CCCNC(=N)N)C(=O)O)cn1C [EG00265, (S)-2-{[3-(1,2-Dimethyl-1H-imidazole-4-sulfonylamino)-thiophene-2-carbonyl]-amino}-5-guanidino-pentanoic acid] | 
16 | < 20 | N=C(N)NCCC[C@H](NC(=O)c1sccc1NS(=O)(=O)c1cccc(C#CCN)c1)C(=O)O [EG00274, (S)-2-({3-[3-(3-Amino-prop-1-ynyl)-benzenesulfonylamino]-thiophene-2-carbonyl}-amino)-5-guanidino-pentanoic acid] | 
17 | < 20 | N=C(N)NCCC[C@H](NC(=O)c1sccc1NS(=O)(=O)c1cccc(NCc2ccccn2)c1)C(=O)O [EG00283, (S)-5-Guanidino-2-[(3-{3-[(pyridin-2-ylmethyl)-amino]-benzenesulfonylamino}-thiophene-2-carbonyl)-amino]-pentanoic acid] | 
18 | < 20 | N=C(N)NCCC[C@H](NC(=O)c1sccc1NS(=O)(=O)c1cc2ccccc2o1)C(=O)O [EG00287, (S)-2-{[3-(Benzofuran-2-sulfonylamino)-thiophene-2-carbonyl]-amino}-5-guanidino-pentanoic acid] | 
19 | < 20 | N=C(N)NCCC[C@H](NC(=O)c1sccc1NS(=O)(=O)c1cc2ccccc2s1)C(=O)O [EG00291, (S)-2-{[3-(Benzo[b]thiophene-2-sulfonylamino)-thiophene-2-carbonyl]-amino}-5-guanidino-pentanoic acid] | 
20 | < 20 | Cc1cc(CNc2cccc(S(=O)(=O)Nc3ccsc3C(=O)N[C@@H](CCCNC(=N)N)C(=O)O)c2)n(C)n1 [EG00316, (S)-2-[(3-{3-[(2,5-Dimethyl-2H-pyrazol-3-ylmethyl)-amino]-benzenesulfonyl-amino}-thiophene-2-carbonyl)-amino]-5-guanidino-pentanoic acid] | 
21 | < 20 | N=C(N)NCCC[C@H](NC(=O)c1sccc1NS(=O)(=O)c1cccc(CCc2cccnc2)c1)C(=O)O [EG00323, (S)-5-Guanidino-2-({3-[3-(2-pyridin-3-yl-ethyl)-benzenesulfonylamino]-thiophene-2-carbonyl}-amino)-pentanoic acid] | 
22 | < 20 | Cc1noc(C)c1-c1cccc(S(=O)(=O)Nc2ccsc2C(=O)N[C@@H](CCCNC(=N)N)C(=O)O)c1 [EG00350, (S)-2-({3-[3-(3,5-Dimethyl-isoxazol-4-yl)-benzenesulfonylamino]-thiophene-2-carbonyl}-amino)-5-guanidino-pentanoic acid] | 
23 | < 20 | N=C(N)NCCC[C@H](NC(=O)c1sccc1NS(=O)(=O)c1cccc(CCCN)c1)C(=O)O [EG00369, (S)-2-({3-[3-(3-Amino-propyl)-benzenesulfonylamino]-thiophene-2-carbonyl}-amino)-5-guanidino-pentanoic acid] | 
24 | < 20 | Cc1noc(C)c1-c1cc2c(c(S(=O)(=O)Nc3ccsc3C(=O)N[C@@H](CCCNC(=N)N)C(=O)O)c1)OCC2 [EG00428, (S)-2-({3-[5-(3,5-Dimethyl-isoxazol-4-yl)-2,3-dihydro-benzofuran-7-sulfonyl-amino]-thiophene-2-carbonyl}-amino)-5-guanidino-pentanoic acid] | 
25 | < 20 | CN1CCOc2cc(-c3cc4c(c(S(=O)(=O)Nc5ccsc5C(=O)N[C@@H](CCCNC(=N)N)C(=O)O)c3)OCC4)cnc21 [EG00475, (S)-5-Guanidino-2-({3-[5-(4-methyl-3,4-dihydro-2H-pyrido[3,2-b][1,4]oxazin-7-yl)-2,3-dihydro-benzofuran-7-sulfonylamino]-thiophene-2-carbonyl}-amino)-pentanoic acid] | 

— patent publication US8158789B2, “Arginine derivatives with NP-I antagonistic activity” (Ark Therapeutics Group Ltd., priority 2006, dated 2012)
